Test results as given in US6846842B2, “Pyruvate ester composition and method of use for resuscitation after events of ischemia and reperfusion” (Beth Israel Deconess Medical Center, Inc., priority 1999, dated 2005).

Tests used:
[1] = Stability and enolization of pyruvate esters in Ringer's solution (NMR, ultraviolet absorption); assay type: physicochemical; settings: for average absorption, corrected for blanks: 1 mMolar solution, 230-260 nm; for absorbance: 28 mM solution, 300-340 nm
Protocol: Specifically, the preferred embodiment of this “pyruvated” Ringer's solution for use in NMR, stability, and subsequent biological studies is shown in Table 2.
Following the procedural recommendations for analysis of Margolis et al. (1986) with respect to scanning times and frequencies on a 400 MHz spectrometer operating in pulse. […] The ultraviolet absorptions of these solutions were also measured periodically over the 230-260 nm range and 300-340 nm span, where changes in enol formation become evident, and provided confirmatory evidence about the distinctly different salvation properties of pyruvate ester analogs in comparison to pyruvate salts applied in the various methods of prior art.
The experimental sequence in which to establish the greater utility of the pyruvate derivatives in this invention follows along the same lines as the comparative spectral experiments just described.
When 28 mM solutions were examined in a similar manner at 300-340 nm, the absorbance of pyruvate remained unchanged before and after calcium addition at a value of 0.03, while the ethyl pyruvate solutions become noticeably straw colored to the naked eye, rising in absorbance from 0.07 to 0.85. The yellow coloration and increases in spectrophotometric absorption in the ultraviolet region confirms the formation of a 1,3-conjugated ketone system, as would result from the enolization of ethylpyruvate under conditions which appear not to enolize pyruvic acid.

[2] = tested on: ischemia/reperfusion mucosal injury, small intestine; assay: Rat model of superior mesenteric artery occlusion (ischemia/reperfusion mucosal injury and barrier dysfunction); assay type: in vivo, male Sprague-Dawley rats; settings: for mucosal thickness (MT) / villous height (VH): 28 mM infusate, mean ± SEM, n=6; for mucosal permeability (FITC-dextran, everted gut sac): during reperfusion
Protocol: The model system and calculation parameters are illustrated in FIG. 3.
Heart rate and mean arterial blood pressure were measured via a right carotid arterial catheter. The left internal jugular vein was cannulated for intravenous infusions.
Controls (n=6) received lactated Ringer's solution (lactate, […], 111.5 ml/kg/hr infusion, 1.5 ml/kg bolus prior to ischemia, and a 3.0 ml/kg bolus prior to reperfusion). Experimental groups (n=6 each) received similar volumes (3 ml) of either pyruvate, Na salt (28 mM) or pyruvate ethyl ester (28 mM), prepared in accordance with the method of this invention as shown in Table 2 and at a dosage rate equivalent to 10 mg/kg/hr. Small intestinal mucosal-to-serosal permeability (CMS, nl/min/cm^2) of FITC- dextran (mw=4 kDA) was evaluated using an everted gut sac technique as previously described by Wattanasirichaigoon (1999). Permeability was measured at baseline, after 30 and 60 minutes of ischemia ([…]) respectively, and after 30 and 60 minutes of reperfusion (R30 and R60, respectively). Histologic samples at baseline, 160 and R60 were evaluated for villous height (VH, μ) and mucosal thickness (MT, μ). Mucosal injury grade was determined according to the method described by Chiu et al. (1970), scored as in Table 3, as follows:
Data were summarized as means±standard error of the mean. Significances of differences were determined using Student's t-test. Differences were considered significant for p<0.05.

[3] = concentrations of 1 Mol/liter or less, standing for 48 hrs; cited from earlier work
[4] = I60 (after 60 minutes of ischemia)
[5] = R60 (after 60 minutes of reperfusion)

| Compound | average absorption, corrected for blanks ([1]; absence of calcium, pH 7.2) | absorbance ([1]; after calcium addition) | absorbance ([1]; before calcium addition) | average absorption, corrected for blanks ([1]; after addition of calcium) | stability of aqueous solution ([1]; in the presence of calcium salts (Ringer's solution)) | mucosal thickness (MT) ([2]; Baseline) [μ] | villous height (VH) ([2]; Baseline) [μ] | mucosal injury score ([2]; Chiu grade 0-5 (Table 3), FIG. 5) | cytoprotection as judged by the extent of permeability increase ([2]; FIG. 4) | mucosal thickness (MT) [2, 4] [μ] | villous height (VH) [2, 4] [μ] | mucosal thickness (MT) [2, 5] [μ] | villous height (VH) [2, 5] [μ] | villous height and mucosal thickness ([2]; during both ischemia and reperfusion, p<0.01) | mucosal permeability (FITC-dextran, everted gut sac) ([2]; FIG. 4) | dimer (4-hydroxy-4-methyl-2-ketoglutaric acid) formed [3] | hydrate formed [3] |
| --- | --- | --- | --- | --- | --- | --- | --- | --- | --- | --- | --- | --- | --- | --- | --- | --- | --- |
| CC(=O)C(=O)O [pyruvic acid, reference compound] | 0.15 |  |  |  |  |  |  |  |  |  |  |  |  |  |  |  |  |
| CCOC(=O)C(C)=O [Ethyl pyruvate (4), ethyl pyruvate] | 0.2 | 0.85 | 0.07 | 0.41 | more stable aqueous solution than sodium pyruvate | 583 | 486 ± 12 | significant diminution | significant trend towards effecting earlier and greater cytoprotection | 466 | 381 ± 24 | 352 | 296 ± 26 | significantly maintained | significantly decreased |  |  |
| CC(=O)C(=O)[O-].[Na+] [Na Pyruvate (1), sodium pyruvate] |  |  |  |  |  |  |  |  |  |  |  |  |  |  | significantly decreased | 20-25% | 6-10% |
| Lactate [reference compound] |  |  |  |  |  | 553 ± 34 | 470 ± 30 |  |  | 298 ± 32 | 244 ± 20 | 141 ± 22 | 130 ± 25 |  |  |  |  |
